Source: patent US7297702B2, “Contraception method using competitive progesterone antagonists and novel compounds useful therein” (Schering Aktiengesellschaft, priority 2004, dated 2007)
“And” between values parts separate entries of the source, which are not always exact repeats. Identical values can stand only once.

Legend:
rat [1] = experiment: Dissociation factor: ovulation inhibition test versus implantation inhibition in the rat; assay type: in vivo; conditions: for peripherally selective effectiveness (endometrium versus hypophysial-ovarian axis): endometrial effect very greatly pronounced, at the same dose at most only a slight central effect; for Dissociation factor: ratio of ovulation-inhibiting dose and implantation inhibiting dose, rat, peroral administration
Excerpt: Such competitive progesterone antagonists can also be designated as dissociated, since at a specific threshold dose, although changes of the endometrium are observed, ovulation (central effect) is not inhibited. The ratio of ovulation-inhibiting dose and implantation inhibiting dose (dissociation factor) (as determined in the rat after peroral administration) can be used as a measurement of the dissociation. This ratio varies from species to species but is at least about 30 or higher in a dissociated or competitive progesterone antagonist.
Such competitive progesterone antagonists can also be designated as dissociated, since at a specific threshold dose, changes of the endometrium are observed, but the ovulation (central effect) is not inhibited. The ratio of ovulation-inhibiting and implantation inhibiting (dissociation factor) doses can be used as a measurement for the dissociation. It varies depending on the species and is about. 30 or more for a dissociated competitive progesterone antagonist (in the rat after peroral administration) to be used according to the invention.
To determine the ovulation-inhibiting doses of competitive progesterone antagonists, the ovulation-inhibiting test described below is performed on the rat; the respective abortively effective doses follow from the known (e.g., U.S. Pat. No. 5,095,129) rat abortive test.
Ovulation Inhibition Test on the Rat
For detection of ovulation-inhibiting substances, the rat is well-suited insofar as it spontaneously ovulates and the cycle can easily be observed by means of vaginal smears. This makes it possible to control the course of the test also during the treatment phase.
Female rats weighing 190-210 g, pro dosi 6 animals.
The animals are kept in Macrolon cages in rooms with controlled exposure to light (10 hours of darkness: 14 hours of brightness), fed a standard diet (pelletized rat food) and tap water at will.
The test substances are dissolved in benzyl benzoate/castor oil (1+9 v/v) and the daily dose is administered in a volume of 0.2 ml s.c.
In the oral application, the test substance is suspended in a carrier liquid (85 mg of Myrj® in 100 ml of 0.9% w/v NaCl solution) and the daily dose is administered in a volume of 0.5 ml.
Two cycles are observed before the beginning of the test by means of vaginal smears. Only animals with a regular 4-day cycle are used in the test. The assignment to the treatment groups takes place at random. Beginning in the metestrus, the test substance is administered over 4 days (day 1-4) and the cycle is further controlled.
On day 4 (after the administration), animals, which have an estrus or metestrus at the time of the vaginal smear, are ovariectomized on one side under ether anesthesia. Crush preparations are prepared from the tubes and examined by microscope for the presence of egg cells. On day 5, all animals (intact and unilaterally ovariectomized) are killed with CO2 gas and the tubes are prepared and examined in the same way.
In the individual dosage groups, the percentage of animals in which the ovulation was inhibited is determined.

[2] = Thymolysis test for antiglucocorticoidal effect; assay type: in vivo; conditions: thymolysis test (EP-A-0 283 428)
Excerpt: This is seen from the thymolysis test for antiglucocorticoidal effect (EP-A-0 283 428).

rat [3] = experiment: Implantation inhibition (antinidatory effectiveness) in the rat; assay type: in vivo
humans = conditions: 50 mg, given during the late luteal phase; cited from earlier work
women = experiment: Human Study 3: once-a-week oral onapristone; assay type: in vivo; conditions: once-a-week oral 0.25-50 mg over two cycles
Protocol: Duration of the study: Evaluation of three cycles: pre-treatment, treatment and post-treatment cycles. • Regimen: 18 daily oral administration of 20 mg (group 1), 10 mg (group 2) and 5 mg (group 3) onapristone starting on day 1 of the cycle. c) Evaluation: • RIA, LH, FSH, E2 and progesterone and cortisol during the pre-treatment, treatment and post-treatment cycles. • Evaluation of endometrial biopsies and collection of the uterine fluid (by prevical) on day 16 and day 23 of the treatment cycle (see appendix for details) • Occurrence of menstrual bleeding. Human Study 3: Effects of once-a-week administration of onapristone on ovulation, endometrial morphology and biochemistry a) Objective:
Groups of volunteers: […] (five treatment groups and a control group) of 8-10 women with ligated oviducts.
Duration of the study: Evaluation of four cycles: pre-treatment, two treatment and post-treatment cycles.
Once-a-week oral administration of 50 mg (group 1) 20 mg (group 2), 10 mg (group 3) 2 mg ([…]) and 0.25 mg (group 5), onapristone starting on day 1 of the cycle over the two cycles.
RIA, LH, FSH, E2 and progesterone during the pre-treatment, treatment and post-treatment cycles.
Evaluation of endometrial biopsies and collection of the uterine fluid on day 16 and day 23 of both treatment cycles (see appendix for details).
Occurrence of menstrual bleeding and cycle abnormalities: […]

endometrium = experiment: Weekly s.c. Onapriston in bonnet monkeys: endometrial histology (biopsy day 20 of second cycle); assay type: in vivo, Macaca radiata; conditions: both treatment groups (5 mg and 10 mg weekly s.c.), after 7 administrations
Excerpt: (§1) The above-described use of competitive progesterone antagonists is evidenced by tests performed with Onapriston [11β-(4-dimethylaminophenyl)-17α-hydroxy-17β-(3-hydroxy-propyl)-13α-methyl-4,9-gonadien-3-one; EP-A-0129499], a typically competitive progesterone antagonist, on adult, female bonnet monkeys (Macaca radiata).

[4] = test system: adult, female bonnet monkeys (Macaca radiata); experiment: Weekly s.c. Onapriston in bonnet monkeys: length of menstrual cycle and menstrual period; assay type: in vivo; conditions: for Length of MC, After-treatment Cycle / Length of MC, Treatment Cycle 1 / Length of MC, Treatment Cycle 2 / Length of MD, After-treatment Cycle / Length of MP, Treatment Cycle 1 / Length of MP, Treatment Cycle 2 / Length of MC, Pretreatment Cycle / Length of MP, Pretreatment Cycle: individual animals; for Length of MC, Pretreatment Cycle / Length of MP, Pretreatment Cycle: pretreatment cycle (baseline)
Excerpt: as §1

[5] = test system: adult, female bonnet monkeys (Macaca radiata); experiment: Weekly s.c. Onapriston in bonnet monkeys: estradiol and progesterone levels (RIA), folliculogenesis and ovulation; assay type: in vivo; conditions: 5 mg and 10 mg per animal s.c. weekly, 2 cycles
Excerpt: as §1

11β,19-[4-(3-pyridinyl)-o-phenylene]-17β-hydroxy-17α-(3-hydroxyprop-1(Z)-enyl)-4-androsten-3-one [II]
peripherally selective effectiveness (endometrium versus hypophysial-ovarian axis) (rat [1]): surprisingly pronounced peripherally selective effectiveness
Dissociation factor (rat [1]): >30
antiglucocorticoidal effect [2]: not simultaneously antiglucocorticoidally effective
daily dose still completely implantation-inhibiting effective (rat [3]): 0.3 mg

11β,19-[4-(4-cyanophenyl)-o-phenylene]-17β-hydroxy-17α-(3-hydroxyprop-1(Z)-enyl)-4-androsten-3-one [I]
peripherally selective effectiveness (endometrium versus hypophysial-ovarian axis) (rat [1]): surprisingly pronounced peripherally selective effectiveness
Dissociation factor (rat [1]): >100
antiglucocorticoidal effect [2]: not simultaneously antiglucocorticoidally effective
daily dose still completely implantation-inhibiting effective (rat [3]): 0.1 mg

CC#C[C@]1(O)CC[C@H]2[C@@H]3CCC4=CC(=O)CCC4=C3[C@@H](c3ccc(N(C)C)cc3)C[C@@]21C [RU 486, 11β-[4-N,N-(dimethylamino)phenyl]-17β-hydroxy-17α-propinyl-estra-4,9(10)-dien-3-one]
Dissociation factor (rat [1]): <10

CN(C)c1ccc([C@H]2C[C@]3(C)[C@@H](CC[C@]3(O)CCCO)[C@@H]3CCC4=CC(=O)CCC4=C32)cc1 [Onapriston, 11β-(4-dimethylaminophenyl)-17α-hydroxy-17β-(3-hydroxy-propyl)-13α-methyl-4,9-gonadien-3-one]
effect on menstruation (humans): induce premature menstruation
contraception reliability (women): high contraception reliability
control of the cycle compared to the control group (women): better control of the cycle
tolerance (women): high tolerance
endometrial histology in contrast to control animals (endometrium): atrophied
length of the cycle and the menstrual period relative to the control group ([4]; 5 mg and 10 mg per animal s.c. weekly, 2 cycles): not changed
Length of MC, After-treatment Cycle ([4]; Group 2, 5 mg/week s.c.): 27 day (2×) and 31 day
Length of MC, Treatment Cycle 1 ([4]; Group 2, 5 mg/week s.c.): 24 days and 27 days and 26 days
Length of MC, Treatment Cycle 2 ([4]; Group 2, 5 mg/week s.c.): 39 days and 29 days and 26 days
Length of MD, After-treatment Cycle ([4]; Group 2, 5 mg/week s.c.): 4 day (2×) and 3 day
Length of MP, Treatment Cycle 1 ([4]; Group 2, 5 mg/week s.c.): 2 day and 1 day (2×)
Length of MP, Treatment Cycle 2 ([4]; Group 2, 5 mg/week s.c.): 5 day and 1 day (2×)
Length of MC, Pretreatment Cycle ([4]; Group 2, 5 mg/week s.c.): 26 days and 28 days and 24 days
Length of MP, Pretreatment Cycle ([4]; Group 2, 5 mg/week s.c.): 1 day (2×) and 3 day
Length of MC, After-treatment Cycle ([4]; Group 3, 10 mg/week s.c.): 26 days and 48 days and 27 days
Length of MC, Treatment Cycle 1 ([4]; Group 3, 10 mg/week s.c.): 25 days and 26 days and 28 days
Length of MD, After-treatment Cycle ([4]; Group 3, 10 mg/week s.c.): 4 days and 1 days and 3 days
Length of MP, Treatment Cycle 1 ([4]; Group 3, 10 mg/week s.c.): 3 day and 1 day (2×)
Length of MP, Treatment Cycle 2 ([4]; Group 3, 10 mg/week s.c.): 1 day (2×) and 2 day
Length of MC, Treatment Cycle 2 ([4]; Group 3, 10 mg/week s.c., * = 2 ovulation cycles, bleeding slight after the first cycle): 53* day and 25 day and 28 day
Length of MC, Pretreatment Cycle ([4]; Group 3, 10 mg/week s.c.): 26 days and 24 days and 30 days
Length of MP, Pretreatment Cycle ([4]; Group 3, 10 mg/week s.c.): 4 days and 2 days and 3 days
folliculogenesis and ovulation (estradiol and progesterone levels) [5]: occurred normally in all animals
